From PubChem BioAssay (NCI)
Values joined by “and” are separate entries in the source; they are usually repeats but may differ in a detail not shown here. Identical values can stand only once.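 Step 1: Grow cells in 96-well plates. Step 2: Expose to compound for 48 hours at 5 concentrations. Step 3: Interpolate endpoints linearly; if unreached, use highest concentration. GI50 marks 50% less growth. At the TGI there is no net growth.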

Tests used:
Experiment in all cases: growth of human tumour cells (NCI), 48 h
[1] = tested on: MDA-MB-435
[2] = tested on: NCI-H226 lung
[3] = tested on: MDA-MB-231 breast
[4] = tested on: SW-620 colon
[5] = tested on: SNB-75 CNS
[6] = tested on: HOP-92 NSCLC
[7] = tested on: UACC-257 melanoma
[8] = tested on: OVCAR-4 ovarian
[9] = tested on: HCC-2998 colon
[10] = tested on: SK-MEL-28 melanoma
[11] = tested on: PC-3 prostate

| SMILES | TGI [1] | TGI [2] | TGI [3] | TGI [4] | TGI [5] | TGI [6] | TGI [7] | TGI [8] | TGI [9] | TGI [10] | TGI [11] | GI50 [1] | GI50 [7] | GI50 [10] |
| --- | --- | --- | --- | --- | --- | --- | --- | --- | --- | --- | --- | --- | --- | --- |
| Cc1ccc(NC=O)c(-c2c(N)[nH]c(=S)[nH]c2=O)c1 | > 100 µM | > 100 µM | > 100 µM | > 100 µM | > 100 µM | > 100 µM | > 100 µM |  |  |  |  |  |  |  |
| Cc1c2ccncc2cc2c1[nH]c1ccccc12 |  | 16.2 µM |  | 4.68 µM | 17 µM | 15.2 µM | 13.5 µM | 33.2 µM | 15.7 µM | 5.91 µM |  |  |  |  |
| CO/N=C(/C)c1cccc(Nc2nc3ccccc3c3[nH]c4ccccc4c23)c1 | 20.6 µM | 33.2 µM | 25.5 µM | 27.5 µM | 18.6 µM |  | 26.5 µM |  |  |  | 22.3 µM |  |  |  |
| CCCC(CCC(N)=O)(CCC(N)=O)[N+](=O)[O-] | > 100 µM | > 100 µM | > 100 µM | > 100 µM | > 100 µM | > 100 µM | > 100 µM |  |  |  | > 100 µM |  |  |  |
| Cc1c2c3ccccc3nc-2n(C)c2ccccc12 | 12.4 µM | 8.52 µM |  | 12.9 µM | 7.75 µM | 13.1 µM | 8.05 µM |  | 11.4 µM | 12.5 µM | 7.5 µM |  |  |  |
| CN(Cc1cnc2nc(N)nc(N)c2n1)c1ccc(C(=O)N[C@@H](CCC(=O)O)C(=O)O)cc1 | > 250 µM | 242 µM and > 250 µM | > 250 µM | 221 µM and > 250 µM |  | 229 µM and > 250 µM | > 237 µM | 238 µM and > 250 µM | 191 µM and > 250 µM | > 250 µM | > 250 µM | 0.0672 µM and 0.0441 µM | 1.89 µM | 3.27 µM |
| CN(C)c1ccc(C=NCC2CCCN3CCCCC23)cc1 (centres undefined) |  | > 100 µM | > 100 µM |  | > 100 µM |  | > 100 µM |  | > 100 µM |  | > 100 µM |  |  |  |
| Cc1ccc2c(c1)C(=O)c1nc(C)ccc1C2=O | 44 µM | > 100 µM | 62.1 µM | > 100 µM | > 100 µM |  | 45.2 µM | 89 µM | 87.8 µM | > 100 µM | > 100 µM |  |  |  |
| CCOc1ccc2[nH]c3c(C)c4ccncc4c(C)c3c2c1 |  | 4.24 µM |  | 1.75 µM | 3.1 µM | 3.07 µM | 3.24 µM | 2.72 µM | 2.74 µM | 3.61 µM |  |  |  |  |
| Clc1ccc(C2=NN=C3C(c4ccccc4)=Nc4ccccc4N3C2)cc1 | > 100 µM | > 100 µM | > 100 µM | > 100 µM |  | > 93.2 µM | > 100 µM | > 43.9 µM | > 100 µM | > 100 µM | > 100 µM |  |  |  |
| CN(C)c1ccc(/C=C2\N=C(NNc3ccccc3)NC2=O)cc1 | 59.1 µM |  | 40.1 µM | 82.3 µM | 78.9 µM | 51.3 µM | 38.5 µM | > 100 µM | 30.9 µM | 71.4 µM | 29.3 µM |  |  |  |
| CCOC(=O)c1nnsc1N/N=C\c1ccc([N+](=O)[O-])cc1 | > 100 µM | > 100 µM | > 100 µM | > 100 µM | > 100 µM |  | > 100 µM | > 100 µM | > 100 µM | > 100 µM | > 100 µM |  |  |  |
| CN1C/C(=C\c2cccs2)C(O)/C(=C/c2cccs2)C1 (centres undefined) | > 100 µM | > 100 µM | > 100 µM | > 100 µM |  | > 100 µM | > 100 µM | > 100 µM | > 100 µM | > 100 µM | > 100 µM |  |  |  |
| COc1ccc(-n2[nH]nc(C(N)=O)c2=O)cc1 | > 100 µM | > 100 µM | > 100 µM | > 100 µM | > 100 µM |  | > 100 µM | > 100 µM | > 100 µM | > 100 µM | > 100 µM |  |  |  |
| CC(=O)OCC1OC(n2cc(F)c(=O)[nH]c2=O)C(NC(=O)OCc2ccccc2)C(OC(C)=O)C1OC(C)=O (centres undefined) |  | > 100 µM |  | > 100 µM | > 100 µM | > 100 µM | > 100 µM | > 100 µM | > 100 µM | > 100 µM |  |  |  |  |
| CN(C(=O)C12C3C4C5C3C1(C(=O)C13C6C7C8C6C1C8C73)C5C42)C(C)(C)C (centres undefined) |  | > 50 µM |  | > 34 µM | > 50 µM | > 50 µM | > 50 µM | > 50 µM | > 50 µM | > 50 µM |  |  |  |  |
| NC1=C(NC(=O)Cc2ccccc2F)C(=O)c2ccccc2C1=O |  | > 100 µM |  | > 100 µM | 62.6 µM | 98.1 µM | > 100 µM | > 100 µM | > 100 µM | > 100 µM |  |  |  |  |
| COc1cc(C(C)O)c(S(=O)(=O)CC(C)O)nn1 (centres undefined) | > 100 µM | > 100 µM |  | > 100 µM |  | > 100 µM | > 100 µM | > 100 µM | > 100 µM | > 100 µM |  |  |  |  |
| C=C1C(=O)O[C@H]2C[C@@]3(COC(C)=O)C=COC=C(COC(=O)C(C)C)C3CC12 (some centres undefined) | > 100 µM | > 100 µM | > 100 µM | > 100 µM | 67.5 µM |  | > 100 µM |  | > 100 µM | > 100 µM | > 100 µM |  |  |  |
| Cc1nc(C)c(N2CCN(S(=O)(=O)N(Cc3ccccc3)Cc3ccccc3)CC2)c(=O)[nH]1 | > 100 µM |  | > 64.5 µM | > 100 µM | 32.9 µM | > 78.1 µM | > 100 µM | > 100 µM | > 100 µM | > 100 µM | > 100 µM |  |  |  |
| N#CN/C(N)=N/C/N=C(\N)NC#N |  | > 100 µM |  | 36 µM | > 100 µM | > 100 µM | > 100 µM | > 100 µM | > 100 µM | > 100 µM |  |  |  |  |
| O=C(/C=C/c1ccccc1)CSc1ncn[nH]1 |  | > 100 µM |  | > 100 µM | > 100 µM |  | > 100 µM | > 100 µM | > 100 µM | > 100 µM | > 100 µM |  |  |  |
| O=C1CC2CC3OC3[C@H]3c4cc5c(cc4C(=O)N1C23)OCO5 (some centres undefined) |  | > 100 µM |  | > 100 µM |  | > 100 µM |  | > 100 µM | > 100 µM | > 100 µM |  |  |  |  |
